Series [1] has as its target T1, hsst5 (Homo sapiens, UniProt P35346).
T1 construct: expressed in transfected cells
Put plainly: competition binding assay on membranes of cells expressing hsst5. To be noted: IC50 value in the nMolar range. Here is the method:
(§1) The experiments are carried out in triplicate.

Series [2] relates to growth hormone release. The series can be described thus: inhibition of growth hormone (GH) release in rats. Format: in vivo, rat. The following applies: s.c. to anaesthetized rats. As to the method: Compound B is administered s.c. to anaesthetized rats. Blood is collected after decapitation 1 h after administration of the compound. The duration of action is estimated on the basis of the inhibition of basal GH secretion 6 h after drug treatment. Hormone levels are measured by RIA 1 h and 6 h after treatment. The ID50-value for the inhibition of the hormone secretion is determined graphically (log-probit) for each experiment and the resulting values are averaged logarithmically.

Series [3] has as its target T2, hsst3 (Homo sapiens, UniProt P32745).
T2 construct: expressed in transfected cells
The series can be described thus: competition binding assay on membranes of cells expressing hsst3. Here is the method: as §1

For series [4], the system named is cultured pituitary cells. Put plainly: inhibition of GH release in vitro from cultured pituitary cells. It is filed as cell-based. The following applies: rat anterior pituitary cells, three hours, 3×10^−10 M growth hormone releasing factor. Here is the method: For example, anterior pituitary glands from adult male rats are cut into small pieces and dispersed using 0.1% trypsin in 20 mM HEPES buffer. The dispersed cells are cultured for four days in MEM (Gibco) supplemented with 5% fetal calf serum, 5% horse serum, 1 mM NaHCO3, 2.5 nM dexamethasone, 2.5 mg/ml insulin and 20 U/ml Pen/Strep. On the day of the experiment the attached cells are washed two times with Krebs-Ringer medium buffered with 20 mM HEPES and supplemented with 5 mM glucose and 0.2% BSA. […] The amount of growth hormone released into the medium is measured by RIA.

For series [5], the target named is T3, hsst2 (Homo sapiens, UniProt P30874).
T3 construct: expressed in transfected cells
The series can be described thus: competition binding assay on membranes of cells expressing hsst2. As to the method: as §1

Series [6] addresses hsst1 (Homo sapiens, UniProt P30872).
Procedure: The binding assays may be carried out as disclosed hereunder using membranes from cell lines expressing selectively and stably hsst1, hsst2, hsst3, hsst4 or hsst5, e.g. CHO or COS cells.
Membranes prepared from hsst selective cell lines, e.g. CHO or COS cells stably expressing hsst1 or hsst2 or hsst3 or hsst4 or hsst5 are incubated in triplicate in a total volume of 300 μl at 22° C. for 30 min with increasing concentrations of [^125I-Tyr^11]-SRIF-14 in 10 mmol/l Hepes buffer (pH 7.6) containing 0.5% BSA. The incubation is terminated by rapid filtration and the filters are counted in a counter. Specific binding is total binding minus non-specific binding in the presence of 1 μmol/l somatostatin-14. The experiments are carried out in triplicate. The affinity constant (KD) and number of binding sites are calculated using appropriate statistics and graphical programs.
Series [7] in a line: storage stability of the composition. Format: physicochemical. The following applies: in the composition of the invention. As to the method:
For example, less than 2.5% of degradation products were found after 4 weeks storage at 60° C. For example, if stored with light protection at 2° C. to 8° C., the compositions of the invention are stable over 24 months.

Numbered stars: 1 amine (or outer) side, 2 acyl side, 3 side chain; on linkers, the order of the positions; unused ones are H or OH. Square brackets hold non-standard residues; d marks the D form. Side chains are listed from the residue outwards. Peptide text beside a SMILES is read from it. * marks the point of attachment. ξ: configuration not given here. Ethylenediamine = C(CN[*:2])N[*:1]; dPhg = N[C@@H](C(=O)O)c1ccccc1; ξHyp = O=C(O)C1CC(O)CN1; CO = O=C([*:1])[*:2]; Bn = c1ccc(C*)cc1

T3 sequence (P30874 whole entry): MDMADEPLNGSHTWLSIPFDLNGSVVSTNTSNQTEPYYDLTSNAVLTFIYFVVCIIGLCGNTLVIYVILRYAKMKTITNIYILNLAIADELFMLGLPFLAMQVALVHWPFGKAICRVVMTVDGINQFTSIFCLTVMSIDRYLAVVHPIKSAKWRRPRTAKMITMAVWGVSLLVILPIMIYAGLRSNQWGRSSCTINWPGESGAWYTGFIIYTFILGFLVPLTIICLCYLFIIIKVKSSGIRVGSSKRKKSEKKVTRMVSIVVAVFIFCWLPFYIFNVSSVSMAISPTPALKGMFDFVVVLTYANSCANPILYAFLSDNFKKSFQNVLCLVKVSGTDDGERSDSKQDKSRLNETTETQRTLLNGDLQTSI
T2 sequence (P32745 whole entry): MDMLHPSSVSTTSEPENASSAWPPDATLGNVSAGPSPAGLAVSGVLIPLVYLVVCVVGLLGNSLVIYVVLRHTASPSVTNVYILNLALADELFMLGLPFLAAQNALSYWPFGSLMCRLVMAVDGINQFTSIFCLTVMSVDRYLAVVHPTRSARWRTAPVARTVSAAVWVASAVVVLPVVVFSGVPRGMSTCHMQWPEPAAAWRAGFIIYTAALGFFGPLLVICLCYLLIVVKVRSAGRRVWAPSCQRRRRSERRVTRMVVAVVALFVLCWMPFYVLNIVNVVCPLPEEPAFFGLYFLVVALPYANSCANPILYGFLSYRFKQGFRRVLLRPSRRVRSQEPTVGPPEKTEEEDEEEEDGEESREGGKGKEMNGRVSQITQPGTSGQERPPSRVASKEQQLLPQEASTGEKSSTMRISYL
T1 sequence (P35346 whole entry): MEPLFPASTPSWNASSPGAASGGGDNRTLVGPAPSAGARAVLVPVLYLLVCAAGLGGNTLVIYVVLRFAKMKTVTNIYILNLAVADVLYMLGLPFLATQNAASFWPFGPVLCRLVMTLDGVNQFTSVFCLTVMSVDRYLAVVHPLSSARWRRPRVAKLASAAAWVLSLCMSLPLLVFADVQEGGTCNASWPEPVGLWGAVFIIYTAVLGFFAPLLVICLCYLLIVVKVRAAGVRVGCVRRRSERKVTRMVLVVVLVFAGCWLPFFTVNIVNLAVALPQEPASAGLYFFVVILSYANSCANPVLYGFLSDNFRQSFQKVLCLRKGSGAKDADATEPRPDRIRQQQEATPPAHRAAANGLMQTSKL
hsst1, sequence (P30872 whole entry): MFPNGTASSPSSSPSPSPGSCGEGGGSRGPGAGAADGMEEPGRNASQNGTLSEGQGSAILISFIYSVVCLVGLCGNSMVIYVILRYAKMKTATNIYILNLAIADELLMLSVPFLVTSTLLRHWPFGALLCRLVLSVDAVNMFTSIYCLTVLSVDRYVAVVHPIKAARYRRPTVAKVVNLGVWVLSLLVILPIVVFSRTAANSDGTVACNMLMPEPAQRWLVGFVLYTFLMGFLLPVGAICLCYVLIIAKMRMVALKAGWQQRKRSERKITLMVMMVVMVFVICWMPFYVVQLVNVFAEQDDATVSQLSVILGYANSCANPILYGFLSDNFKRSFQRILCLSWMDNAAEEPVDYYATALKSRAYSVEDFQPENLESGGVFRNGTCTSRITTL

As for `NCCCC[C@@H]1NC(=O)[C@@H](Cc2c[nH]c3ccccc23)NC(=O)[C@@H](c2ccccc2)NC(=O)C2CC(OC(=O)NCCN)CN2C(=O)[C@H](Cc2ccccc2)NC(=O)[C@H](Cc2ccc(OCc3ccccc3)cc2)NC1=O` (stereo partly drawn) [Compound B, cyclo[{4-(NH2—C2H4—NH—CO—O—)Pro}-DPhg-DTrp-Lys-Tyr(4-Bzl)-Phe]] (cyclo([ξHyp]([CO-Ethylenediamine])[dPhg][dW]KY(Bn)F)), the “binding affinity towards hsst5 (in words)” value in series [1] is “good binding affinity”. Also, in series [2], the “inhibition of growth hormone release in vivo” value is given as “inhibits growth hormone release”. The “binding affinity towards hsst3 (in words)” value in series [3] was “low binding affinity”. The “inhibition of GH release in vitro” value in series [4] is listed as “GH-release inhibiting activity”. The “binding affinity towards hsst2 (in words)” value in series [5] is “no significant binding affinity”. Further, in series [6], the “binding affinity towards hsst1 (in words)” value was “no significant binding affinity”.

Consider “cyclo[{4-(NH2—C2H4—NH—CO—O—)Pro}-Phg-DTrp-Lys-Tyr(4-Bzl)-Phe] [diaspartate salt of Compound A]”, for which, in series [7], the “stability (in words)” value is “Particularly good stability”.

(Values after patent publication US8299209B2, “Pharmaceutical composition comprising cyclic somatostatin analogues” (Novartis AG, priority 2003, dated 2012).)
